Experiments:
Format in all cases: cell-based
MRC-5 cell line = assay: Cell viability assay for MRC-5 cell line (EZ-Cytox); conditions: Homo sapiens, MRC5, 120 h; MRC-5 normal cell line, 5 days, 10000 nM to 1.52 nM; N.D. = no cytotoxicity until 10 μM; read-out: Activity: IC50 value of Exemplary Compound to MRC-5 cell line
Experimental: 4. Cell Viability Assay for MRC-5 Cell Line
(1) Culture of MRC-5 Cell Line
Passage of cultured cells was maintained within P15.
(2) Treatment of Compounds of the Present Invention
Then, it was cultured in 37° C.
(3) Cytotoxicity Experiment
CO2 incubator for 4 hours.

NCI-H526 cell line = assay: Cell viability assay for H526 cell (EZ-Cytox); conditions: Homo sapiens, NCI-H526, 120 h; H526 cells, 5 days, 3000 nM to 0.46 nM
Procedure, shortened: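 Read-out was EZ-Cytox colorimetric absorbance at 450 nm, taken after brief plate shaking, with IC50 derived. Before reading, H526 cells had been cultured with test compound for 5 days.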

PLK1 = target: T1, PLK1 (Homo sapiens, UniProt P53350); assay: Luciferase assay for PLK1 in HeLa LgBit (Plk1-HiBit KI) cell line; conditions: 300 nM compound, luminescence after 9 hours
T1 construct: endogenous in cells; host or cells: HeLa LgBit (Plk1-HiBit KI): HeLa stably expressing LgBit, with a CRISPR/Cas9 knock-in of HiBit at the endogenous PLK1 locus
Procedure, shortened: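 Luminescence, followed in real time after adding compound at 300 nM and Endurazine substrate, is reported relative to DMSO-treated wells. Cells are a HeLa LgBit line with a Plk1-HiBit knock-in, synchronized by 2 mM thymidine for 24 h, released, and cultured 18 h before treatment.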

T1 sequence (P53350 whole entry): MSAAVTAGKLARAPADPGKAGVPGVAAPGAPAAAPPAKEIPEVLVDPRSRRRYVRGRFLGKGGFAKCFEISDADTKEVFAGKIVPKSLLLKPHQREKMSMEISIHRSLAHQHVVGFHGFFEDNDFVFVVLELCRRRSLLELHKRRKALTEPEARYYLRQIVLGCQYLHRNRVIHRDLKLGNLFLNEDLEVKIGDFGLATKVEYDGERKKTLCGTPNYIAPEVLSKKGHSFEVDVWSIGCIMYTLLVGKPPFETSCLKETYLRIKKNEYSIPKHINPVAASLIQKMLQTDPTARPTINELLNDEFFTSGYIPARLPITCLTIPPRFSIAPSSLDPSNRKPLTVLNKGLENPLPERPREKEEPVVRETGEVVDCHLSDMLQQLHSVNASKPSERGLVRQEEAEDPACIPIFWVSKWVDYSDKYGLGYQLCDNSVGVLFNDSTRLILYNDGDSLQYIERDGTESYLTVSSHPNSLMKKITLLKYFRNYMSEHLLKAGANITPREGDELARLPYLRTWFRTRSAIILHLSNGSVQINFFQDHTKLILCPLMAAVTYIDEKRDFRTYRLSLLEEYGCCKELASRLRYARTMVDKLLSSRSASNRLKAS

| SMILES | Activity: ratio of the luminescense value of each Exemplary Compound treatment group to DMSO treatment group (PLK1) | IC50 (MRC-5 cell line) [µM] | IC50 (NCI-H526 cell line) [µM] |
| --- | --- | --- | --- |
| COc1cc(C(=O)NC2CCN(C3CC4(CCN(c5cccc6c5C(=O)N(C5CCC(=O)NC5=O)C6=O)CC4)C3)CC2)c(F)cc1Nc1ncc2c(n1)N(C1CCCC1)CC(F)(F)C(=O)N2C (stereo not drawn) [Compound 208, 4-((9-cyclopentyl-7,7-difluoro-5-methyl-6-oxo-6,7,8,9-tetrahydro-5H-pyrimido[4,5-b][1,4]diazepin-2-yl)amino)-N-(1-(7-(2-(2,6-dioxopiperidin-3-yl)-1,3-dioxoisoindolin-4-yl)-7-azaspiro[3.5]nonan-2-yl)piperidin-4-yl)-2-fluoro-5-methoxybenzamide] | ++ (++<0.6) | > 10 | < 0.1 |
| COc1cc(C(=O)NN2CCC(CN3CCN(c4ccc5c(c4)C(=O)N(C4CCC(=O)NC4=O)C5=O)CC3)CC2)ccc1Nc1ncc2c(n1)N(C1CCCC1)CC(F)(F)C(=O)N2C (stereo not drawn) [Compound 148, 4-((9-cyclopentyl-7,7-difluoro-5-methyl-6-oxo-6,7,8,9-tetrahydro-5H-pyrimido[4,5-b][1,4]diazepin-2-yl)amino)-N-(4-((4-(2-(2,6-dioxopiperidin-3-yl)-1,3-dioxoisoindolin-5-yl)piperazin-1-yl)methyl)piperidin-1-yl)-3-methoxybenzamide] | ++ (++<0.6) | 13.2 | < 0.05 |
| COc1cc(C(=O)NC2CCN(C(=O)CCN3CCN(c4cccc5c4C(=O)N(C4CCC(=O)NC4=O)C5=O)CC3)CC2)ccc1Nc1ncc2c(n1)N(C1CCCC1)CC1(CC1)C(=O)N2C (stereo not drawn) [Compound 120, 4-((9′-cyclopentyl-5′-methyl-6′-oxo-5′,6′,8′,9′-tetrahydrospiro[cyclopropane-1,7′-pyrimido[4,5-b][1,4]diazepin]-2′-yl)amino)-N-(1-(3-(4-(2-(2,6-dioxopiperidin-3-yl)-1,3-dioxoisoindolin-4-yl)piperazin-1-yl)propanoyl)piperidin-4-yl)-3-methoxybenzamide] | +++ (+++: <0.3) | > 10 | < 0.05 |
| COc1cc(C(=O)N[C@H]2CC[C@H](N(C)CCN3CCN(c4cccc5c4C(=O)N(C4CCC(=O)NC4=O)C5=O)CC3)CC2)ccc1Nc1ncc2c(n1)N(C1CCCC1)CC(F)(F)C(=O)N2C (stereo partly drawn) [Compound 129, 4-((9-cyclopentyl-7,7-difluoro-5-methyl-6-oxo-6,7,8,9-tetrahydro-5H-pyrimido[4,5-b][1,4]diazepin-2-yl)amino)-N-((1r,4r)-4-((2-(4-(2-(2,6-dioxopiperidin-3-yl)-1,3-dioxoisoindolin-4-yl)piperazin-1-yl)ethyl)(methyl)amino)cyclohexyl)-3-methoxybenzamide] | +++ (+++: <0.3) | 17.3 | < 0.03 |

More lines, main results first:

| Activity: ratio of the luminescense value of each Exemplary Compound treatment group to DMSO treatment group (PLK1) | SMILES | IC50 (MRC-5 cell line) [µM] | IC50 (NCI-H526 cell line) [µM] |
| --- | --- | --- | --- |
| ++ (++<0.6) | COc1cc(C(=O)NC2CCN(C(=O)CCN3CCN(c4ccc(F)c5c4C(=O)N(C4CCC(=O)NC4=O)C5=O)CC3)CC2)ccc1Nc1ncc2c(n1)N(C1CCCC1)CC(F)(F)C(=O)N2C (stereo not drawn) [Compound 142, 4-((9-cyclopentyl-7,7-difluoro-5-methyl-6-oxo-6,7,8,9-tetrahydro-5H-pyrimido[4,5-b][1,4]diazepin-2-yl)amino)-N-(1-(3-(4-(2-(2,6-dioxopiperidin-3-yl)-7-fluoro-1,3-dioxoisoindolin-4-yl)piperazin-1-yl)propanoyl)piperidin-4-yl)-3-methoxybenzamide] | > 10 | < 0.1 |
| ++ (++<0.6) | COc1cc(C(=O)NC2CCN(CCCN3CCN(c4cccc5c4C(=O)N(C4CCC(=O)NC4=O)C5=O)CC3)CC2)ccc1Nc1ncc2c(n1)N(C1CCCC1)CC(F)(F)C(=O)N2C (stereo not drawn) [Compound 60, 4-((9-cyclopentyl-7,7-difluoro-5-methyl-6-oxo-6,7,8,9-tetrahydro-5H-pyrimido[4,5-b][1,4]diazepin-2-yl)amino)-N-(1-(3-(4-(2-(2,6-dioxopiperidin-3-yl)-1,3-dioxoisoindolin-4-yl)piperazin-1-yl)propyl)piperidin-4-yl)-3-methoxybenzamide] | 4.19 | < 0.03 |
| ++ (++<0.6) | CN1C(=O)C(F)(F)CN(C2CCCC2)c2nc(Nc3ccc(C(=O)NC4CCN(C(=O)CCN5CCN(c6cccc7c6C(=O)N(C6CCC(=O)NC6=O)C7=O)CC5)CC4)cc3O)ncc21 (stereo not drawn) [Compound 72, 4-((9-cyclopentyl-7,7-difluoro-5-methyl-6-oxo-6,7,8,9-tetrahydro-5H-pyrimido[4,5-b][1,4]diazepin-2-yl)amino)-N-(1-(3-(4-(2-(2,6-dioxopiperidin-3-yl)-1,3-dioxoisoindolin-4-yl)piperazin-1-yl)propanoyl)piperidin-4-yl)-3-hydroxybenzamide] | > 10 | < 0.1 |
| ++ (++<0.6) | COc1cc(C(=O)NC2CCC(N(C)C3CCN(c4cccc5c4C(=O)N(C4CCC(=O)NC4=O)C5=O)CC3)C2)ccc1Nc1ncc2c(n1)N(C(C)C)CC(F)(F)C(=O)N2C (stereo not drawn) [Compound 165, 4-((7,7-difluoro-9-isopropyl-5-methyl-6-oxo-6,7,8,9-tetrahydro-5H-pyrimido[4,5-b][1,4]diazepin-2-yl)amino)-N-(3-((1-(2-(2,6-dioxopiperidin-3-yl)-1,3-dioxoisoindolin-4-yl)piperidin-4-yl)(methyl)amino)cyclopentyl)-3-methoxybenzamide] | > 10 | < 0.03 |
| ++ (++<0.6) | COc1cc(C(=O)N(C)C2CCN(C(=O)CCN3CCN(c4cccc5c4C(=O)N(C4CCC(=O)NC4=O)C5=O)CC3)CC2)ccc1Nc1ncc2c(n1)N(C1CCCC1)CC(F)(F)C(=O)N2C (stereo not drawn) [Compound 77, 4-((9-cyclopentyl-7,7-difluoro-5-methyl-6-oxo-6,7,8,9-tetrahydro-5H-pyrimido[4,5-b][1,4]diazepin-2-yl)amino)-N-(1-(3-(4-(2-(2,6-dioxopiperidin-3-yl)-1,3-dioxoisoindolin-4-yl)piperazin-1-yl)propanoyl)piperidin-4-yl)-3-methoxy-N-methylbenzamide] | > 10 | < 0.1 |
| ++ (++<0.6) | COc1cc(C(=O)N2CCN(CCN3CCN(c4ccc5c(c4)C(=O)N(C4CCC(=O)NC4=O)C5=O)CC3)CC2)ccc1Nc1ncc2c(n1)N(C1CCCC1)CC(F)(F)C(=O)N2C (stereo not drawn) [Compound 89, 5-(4-(2-(4-(4-((9-cyclopentyl-7,7-difluoro-5-methyl-6-oxo-6,7,8,9-tetrahydro-5H-pyrimido[4,5-b][1,4]diazepin-2-yl)amino)-3-methoxybenzoyl)piperazin-1-yl)ethyl)piperazin-1-yl)-2-(2,6-dioxopiperidin-3-yl)isoindoline-1,3-dione] | > 10 | < 0.4 |

Reference: patent publication US20250114460A1, “NOVEL PLK1 DEGRADATION INDUCING COMPOUND” (UPPTHERA, INC., priority 2021, published 2025)
